Columns and labels:
[1] = test system: mesenchymal stem cell; test: Immunohistochemical staining of aggrecan and type II collagen, bioreactor culture; assay type: cell-based, Wistar rats; conditions: tri-copolymer scaffold, kartogenin
Description: The aggrecan and the type II collagen were characteristic proteins of the cartilage cells. The coculture structure was cultured in the dynamic bioreactor and the expressions of the proteins were presented by immunohistochemical staining. The samples culturing under the dynamic culture environment for 7, 14, and 21 days were washed in PBS, immersed in 2.5% formaldehyde for 30 minutes for immobilization. The samples were paraffin-embedded and sectioned into 5 μm. The immunohistochemistry was used to examine the characteristic protein of the cartilage cells which comprises the aggrecan and the type II collagen. After dewaxing by xylene and rehydration, the activity of endogenous peroxidase was cleaned by Hydrogen Peroxide Block reagent (ab80436, abcam, MA, USA). After antigen was repaired, non-specific background protein was bound by Protein Block (ab80436). The primary antibodies (rabbit anti-collagen-II (ab53047), rabbit anti-aggrecan (GTX86902)) of type II collagen and aggrecan were reacted with the tissue slices at 4° C. for 12 hr. After rinsing, the slices were bound with horseradish peroxidase (HRP) conjugated secondary antibody (goat anti-rabbit HRP conjugate). […] Last, the hematoxylin was incubated with the slices at room temperature for 30 minutes for counterstain.
In the present example, the cell-material complex sections were examined at 3 time points: Day 0, 7 and 21. […]

[2] = test system: mesenchymal stem cell; test: Hematoxylin/Eosin histological examination of cell-material complex sections, bioreactor culture; assay type: cell-based, Wistar rats; conditions: tri-copolymer scaffold
Description: After combining the gelatin-hyaluronan-chondroitin tri-copolymer and the stem cell, the coculture construct was seeded and transferred into the dynamic bioreactor for culturing. The morphology of the differentiated cells were stained with Hematoxylin/Eosin, and in the present example, the cell-material complex sections were examined at 3 time points: Day 0, 7 and 21.

[3] = test system: mesenchymal stem cell; test: Real-time PCR gene expression of mesenchymal stem cell in tri-copolymer scaffold with kartogenin, bioreactor culture; assay type: cell-based, Wistar rats
Text: (§1) The gene expression of the mesenchymal stem cell was examined by Real-time PCR. The results were used for determining the medium formulation in the following scaffold culture and bioreactor culture. The primers used in the present invention were shown as the following table:
(§2) The mesenchymal stem cells used in the present invention were in the third generation of subculture to ensure the maintenance of the cell morphology. The proliferated stem cells were dissociated by trpsin, collected and condensed to 10^7 cells/mL. 50 μL of the cell solution was seeded on each dry scaffold. The cells were divided into static culture group and bioreactor culture group. The former changed the medium every 2 to 3 days and in the latter, after cells seeding into the scaffold and culturing for one day, it was moved into the bioreactor.
After culturing the tri-copolymer material, the mesenchymal stem cell and kartogenin in the bioreactor for 7, 14 and 21 days, mRNA genes expression were examined. In this example, the control group was the mesenchymal stem cell culturing […].
After culturing in the bioreactor for 7, 14, and 21 days, mRNA gene expression was examined. In this example, the control group was the mesenchymal stem cell culturing on the 2-dimensional plate for 1 day.

[4] = test system: mesenchymal stem cell; test: Safranin-O staining of glycosaminoglycans, bioreactor culture; assay type: cell-based, Wistar rats; conditions: tri-copolymer scaffold, kartogenin, 21 days
Text: Glycosaminoglycans (GAGs) were mainly the content of the extracellular matrix secreted by the chondrocyte.
The cells were distributed on the tri-copolymer scaffold at the beginning of culture. Red was for Safranin-O staining. The Safranin-O staining of the background was from the chondroitin-6-sulfate of the material itself which was one of the Glycosaminoglycans. […] After the cell culturing for 21 days, the cell mass was examined, of which size was about 100 μm.

[5] = test system: mesenchymal stem cell; test: Alcian Blue stain of mesenchymal stem cell condensation and glycosaminoglycan secretion, 2-dimensional plate culture; assay type: cell-based, Wistar rats; conditions: 3 and 7 days, vs control without kartogenin
Text: The Isolation and Culture of the Mesenchymal Stem Cell • 1. The cell source was taken from the four limbs of two-week old Wistar rats. Rats were sacrificed and immersed in 75% alcohol. The operation process for taking four limbs was under half sterile environment. • 2. During the cellular collecting processes, sterilized equipments were used in the whole processes. Both tibia and femur of the lower limb were taken. The tip of the scissor was used to separate the bone and the muscle. The knee joints and the hip joints were taken down along the bones; the part near the ankle was difficult to remove completely, so a direct cut was made close to the ankle joints. Only the humerus in upper limb had enough amounts of cells, so just took humerus and the scapula was processed as ankle joints in having a direct cut. Finally the limbs were soaked and washed in phosphate buffer solution (PBS) with 10% antibiotics (penicillin 10,000/ml, streptomycin 10 mg/ml, amphotericin-B 0.025 mg/ml). • 3. The muscle on the limbs was clearly removed under solution, the protruding parts of the two ends were cut out and soaked into new PBS (containing 1% antibiotics). Cells were washed out by syringe filled with PBS. • 4. PBS containing cells was placed in centrifuge tubes and centrifugated at 2000 rpm for 5 minutes. The red blood cells were suspended cells which adhered to and flowed with the mesenchymal stem cell. […]

[6] = test system: mesenchymal stem cell; test: Real-time PCR gene expression of mesenchymal stem cell, 2-dimensional plate culture; assay type: cell-based, Wistar rats
Text: The Isolation and Culture of the Mesenchymal Stem Cell • 1. The cell source was taken from the four limbs of two-week old Wistar rats. Rats were sacrificed and immersed in 75% alcohol. The operation process for taking four limbs was under half sterile environment. • 2. During the cellular collecting processes, sterilized equipments were used in the whole processes. Both tibia and femur of the lower limb were taken. The tip of the scissor was used to separate the bone and the muscle. The knee joints and the hip joints were taken down along the bones; the part near the ankle was difficult to remove completely, so a direct cut was made close to the ankle joints. Only the humerus in upper limb had enough amounts of cells, so just took humerus and the scapula was processed as ankle joints in having a direct cut. Finally the limbs were soaked and washed in phosphate buffer solution (PBS) with 10% antibiotics (penicillin 10,000/ml, streptomycin 10 mg/ml, amphotericin-B 0.025 mg/ml). • 3. The muscle on the limbs was clearly removed under solution, the protruding parts of the two ends were cut out and soaked into new PBS (containing 1% antibiotics). Cells were washed out by syringe filled with PBS. • 4. PBS containing cells was placed in centrifuge tubes and centrifugated at 2000 rpm for 5 minutes. The red blood cells were suspended cells which adhered to and flowed with the mesenchymal stem cell. The supernatant was carefully removed. • 5. Hank's Balanced Salt Solution (HBSS) was added into the centrifugated cells. After mixing up, 5 mL of HBSS mixed with cells was added into 5 mL of Ficoll separating solution and centrifugated at 18-20° C. at the speed 300 g for 40 minutes. • 6. After centrifugation, the supernatant was sucked out; large amount of PBS was added to dilute the Ficoll separating solution and washed for 2-3 times. • 7. Medium was added into the centrifugated cells and mixed up for culturing. Dulbecco's Modified Eagle Medium (DMEM) with 10% fetal bovine serum (FBS) was used for the stem cell medium in this example. • 8. After the cells attached, the medium was changed every 2-3 days. When the cells was fully confluent, subcultured as the proportion of one to three or one to four.
as §1
The cells cultured in DMEM with 10% FBS were used as the control group.

[7] = test system: mesenchymal stem cell; test: Live and death staining (Calcein-AM/PI) of mesenchymal stem cell in tri-copolymer scaffold, static culture; assay type: cell-based, Wistar rats; conditions: 1.0 kartogenin, 7 days, vs control group
Description: as §2
After the combination of the gelatin-hyaluronan-chondroitin tri-copolymer with the mesenchymal stem cell, the differentiating effects under the 3-dimensional culture were confirmed. Through the live and death staining, the cell condensation during early differentiation stage was examined at the presence of 1.0 kartogenin. […] Apoptosis was the process during chondrogenic differentiation of stem cell.
The fluorescent staining of Calcein-AM and Propidium Iodide (PI) was used to examine the survival distribution of the cells in the scaffold. The former was lipophilic which could easily enter into the living cell and being hydrolyzed to produce fluorescent compounds, calcein, so that only the living cell could be stained with Calcin-AM. […] When PI bound to a DNA double helix, it emitted red fluorescence. […]

[8] = test system: mesenchymal stem cell; test: DMMB quantification of glycosaminoglycans in the bioreactor medium; assay type: cell-based, Wistar rats; conditions: tri-copolymer scaffold, kartogenin, day 7, 14 and 21
Description: 1,9-dimethylmethlene blue (DMMB) method was used for quantifying Glycosaminoglycans (GAGs). 16 mg of DMMB was dissolved in 5 mL of 95% ethanol and diluted with 3 mL of formic acid and 25.6 mL of NaOH. Double distilled water was used to adjust the final volume to 1 liter, and the solution was maintained at pH 3.5.
250 μL of the DMMB solutions were added into 40 μL of the diluted sample solutions which were from different time points. After reacted in the dark for 10 min, the absorbance of 520 nm was detected and then the GAGs concentration was determined by interpolated onto the standard curve calculated by the chondroitin-6-sulfate.
The GAGs concentrations in the medium were determined by the DMMB method through collecting samples from the bioreactor at different time points.

[9] = test system: hMSC; conditions: cited from earlier work
[10] = day 7, control MSC on 2-dimensional plate 1 day
[11] = day 14, control MSC on 2-dimensional plate 1 day
[12] = day 21, control MSC on 2-dimensional plate 1 day

## O=C(O)c1ccccc1C(=O)Nc1ccc(-c2ccccc2)cc1 [kartogenin]
[1]; day 7 and 21, not distinct at day 0
  type II collagen expression (immunohistochemical staining): positively stained
[1]; day 21 compared with day 7
  aggrecan expression (immunohistochemical DAB staining): higher expression of aggrecan
[2]; kartogenin induction, day 7
  cell condensation (Hematoxylin/Eosin section): cell condensation was presence
[2]; kartogenin, day 21
  lacunae structure (Hematoxylin/Eosin section): lacunae like structure was examined
  size of the cell mass (Hematoxylin/Eosin section): about 100 μm
[3]; day 7
  Aggrecan expression compared to the control group: 11.66±4.75 fold
  Col2a1 gene expression compared to the control group: 13.6±4.7 fold
  TIMPs expression: 5.60±1.24 fold
[3]; day 7, control MSC cultured 1 day
  Sox-9 expression: 2.51±0.90 fold
[3]; [10]
  Col1a1 expression compared to the control group: 13.19±2.90 fold
  Col10a1 expression: 39.23±9.39 fold
  Runx 2 expression compared to the control group: 8.60±3.55 fold
[3]; day 14
  Aggrecan expression compared to the control group: 12.33±6.3 fold
  Col2a1 gene expression compared to the control group: 28.26±11.64 fold
  TIMPs expression: 5.79±5.25 fold
[3]; day 14, control MSC cultured 1 day
  Sox-9 expression: 3.91±2.12 fold
[3]; [11]
  Col1a1 expression compared to the control group: 17.26±1.38 fold
  Col10a1 expression: 36.08±26.00 fold
  Runx 2 expression compared to the control group: 9.89±3.82 fold
[3]; day 21
  Aggrecan expression compared to the control group: 9.74±3.83 fold
  Col2a1 gene expression compared to the control group: 40.32±9.13 fold
  TIMPs expression: 3.94±1.08 fold
[3]; day 21, control MSC cultured 1 day
  Sox-9 expression: 3.06±0.99 fold
[3]; [12]
  Col1a1 expression compared to the control group: 13.14±6.07 fold
  Col10a1 expression: 5.56±5.23 fold
  Runx 2 expression compared to the control group: 7.35±1.96 fold
[4]
  accumulation of GAGs (Safranin-O staining): accumulation of the GAGs was examined on the surface of the cell mass
  size of the cell mass (Safranin-O/Hochest staining): about 100 μm
[5]; 0.1 μM kartogenin
  early condensation and secretion of glycosaminoglycans (Alcian Blue stain): promoted the condensation phenomenon
[5]; 1.0 μM kartogenin
  early condensation and secretion of glycosaminoglycans (Alcian Blue stain): promoted the condensation phenomenon
[6]; 0.1 μM kartogenin, day 14
  TIMPs expression compared to the control group: 0.91±0.04 fold
[6]; 1.0 μM kartogenin, 7 days
  Sox-9 gene expression relative to the control group: 1.66±0.27 fold
[6]; 1.0 μM kartogenin, 7 days, higher than 0.1 μM group (p<0.001)
  Aggrecan gene expression: 3.99±0.63 fold
[6]; 1.0 μM kartogenin, 14 days
  Aggrecan gene expression compared to the untreated group: 6.44±0.35 fold
[6]; 1.0 μM kartogenin, day 3 and day 7
  Sox-9 gene expression: up-regulated
[6]; 1.0 μM kartogenin, day 14
  Sox-9 gene expression: 0.56±0.04 fold
  TIMPs expression compared to the control group: 1.63±0.249 fold
[7]
  cell condensation (live and death staining): cell condensation was occurred
  proportion of cell death (live and death staining): higher
[8]
  secretion of GAGs into the medium (DMMB method): increased
[9]
  EC50: 100 nM

— patent US10066208B2, “Kit and method for promoting mesenchymal stem cell differentiation” (priority 2014, dated 2018)
